# Results published in US20020102688A1, “Methods and products for the synthesis of oligosaccharide structures on glycoproteins, glycolipids, or as free molecules, and for the isolation of cloned genetic sequences that determine these structures” (The Regents of the University of Michigan, priority 1990, published 2002).
# Read-outs that look alike come from different tables or passages of the source.
# Key:
# [1] = tested on: nucleotide pyrophosphatase activity; experiment: Nucleotide pyrophosphatase activity in mock fucosyltransferase assays; type: biochemical; details: 5 mM in standard assay cocktail
# Description: ATP (5 mM) was therefore included in all assays to inhibit nucleotide pyrophosphatase activity. […] Each enzyme source was incubated for 1 to 4 h at 37° C. in 20 μl of standard assay cocktail, but in the absence of phenyl-β-D-galactoside. After the reactions were terminated, an aliquot of each was spotted on Whatman No. 3MM, fractionated by descending paper chromatography for 20 h in solvent B, and radioactivity was determined as described above. Authentic GDP-[^14C]fucose, [^14C]fucose-1-phosphate, and L-[^14C]fucose standards were chromatographed in parallel. This system separates GDP-fucose, fucose-1-phosphate, and fucose. It therefore allows quantitation of the amount of GDP-[^14C]fucose remaining at the end of the incubation, and thus provides an estimate of pyrophosphatase activity. Under the standard assay conditions, more than 97% of the GDP-[^14C]fucose initially present in each mock reaction remained unhydrolyzed and available for transglycosylation.
# [2] = target: T1, recombinant human (α1,2)fucosyltransferase (Homo sapiens, UniProt P19526); experiment: Apparent Michaelis constants of recombinant (α1,2)fucosyltransferase expressed in COS-1 cells; type: biochemical
# T1 construct: expressed in transfected cells; host or cells: COS-1 cells, transient DEAE-dextran transfection, cell extracts
# T1 sequence (P19526 1-365): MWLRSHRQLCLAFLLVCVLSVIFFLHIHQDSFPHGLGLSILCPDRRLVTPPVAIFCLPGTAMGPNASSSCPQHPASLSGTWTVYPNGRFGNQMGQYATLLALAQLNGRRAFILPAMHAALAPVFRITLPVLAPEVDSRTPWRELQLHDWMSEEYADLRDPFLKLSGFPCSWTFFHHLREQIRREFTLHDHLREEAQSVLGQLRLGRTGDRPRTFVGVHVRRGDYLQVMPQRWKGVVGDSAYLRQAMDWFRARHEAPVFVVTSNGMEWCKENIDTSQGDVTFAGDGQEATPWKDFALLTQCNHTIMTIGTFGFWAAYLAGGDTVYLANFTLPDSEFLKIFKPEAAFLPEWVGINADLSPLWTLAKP
# Description: (§1) Fucosyltransferase assays were performed by a modification of the procedure reported by Chester et al. (Chester et al, Eur. J. Biochem., 69: 583-593, 1976). The standard assay contained GDP-[^14]fucose (3 μM) phenyl-β-D-galactoside (25 mM), ATP (5 mm) and the enzyme solution (1-10 μl) in 20 μl of 25 mM sodium phosphate buffer, pH 6.1. Based upon preliminary assays, amounts of added enzyme activities were adjusted to ensure that reactions were linear throughout the period of incubation (4 h for fractionated serum, 2 h for each of the other enzyme preparations). Under these conditions, less than 15% of the substrate was consumed during the incubation period. […] The final pH value of each reaction was determined with a micro pH probe. […] The concentration of GDP-fucose in this stock solution was calculated from the UV absorbance at 254 nm of an aliquot diluted in water. […] The supernatant contained virtually 100% of the radiolabelled product; this was collected, and an aliquot was used for separation and quantitation of the fucosylated product using the hydrophobic interaction chromatography method described below. […] This background acceptor “activity” was always less than 3% of the radioactivity incorporated into the phenyl-β-D-galactoside acceptor. […] Intercepts were calculated by the least squares estimation method. […]
# (α1,2)fucosyltransferase = experiment: (α1,2)Fucosyltransferase assay, substrate and effector tests; type: biochemical
# Description: as §1
# [3] = tested on: monoclonal anti-H antibody; experiment: Hapten inhibition of anti-H antibody binding to mH1-12 cells (indirect immunofluorescence); parameters: species or system mouse; details: antibody preincubated with hapten, 20 mM
# Description: Immunofluoroscence was performed on cells plated on 8-well tissue culture chamber slides (Lab-Tek). Cells were plated at a density of 5×10^4/well 24 h prior to analysis. Anti-H and anti-A primary antibodies were diluted in PBS containing bovine serum albumin at 2 mg/ml, to a final concentration of 10 μg/ml. Cell-bound primary antibodies were detected with FITC-conjugated goat anti-mouse IgM, diluted to 40 μg/ml in PBS containing 2 mg/ml bovine serum albumin.
# Hapten Inhibition—Plated cells were washed twice with PBS, and were incubated for 30 min at 4° C. with 100 μl of diluted anti-H antibody, or with 100 μl of diluted antibody containing different oligosaccharide haptens, each at a concentration of 20 mM. The chambers were then washed twice, and 100 μl of FITC-conjugated goat anti-mouse IgM was added. After 30 min at 4° C., the chambers were washed three times with PBS, and the cells were fixed at room temperature for 10 min in 3.7% formaldehyde in PBS. The cells were washed twice with PBS, the chambers were removed, and the slide was mounted in PBS containing 25% glycerol. Cells were examined by fluorescence microscopy using a Zeiss Axiophot photomicroscope equipped with fluorescence epiillumination.
# α-fucosidase activity = experiment: α-Fucosidase activity in enzyme preparations; type: biochemical; details: 10 mM; fractionated human serum and mouse intestinal mucosa extracts
# Description: Each enzyme preparation was also tested for α-fucosidase activity that could hydrolyze the [^14C]fucosylphenyl-β-D-galactoside product and prevent accurate determination of (α1,2)fucosyltransferase activity. Enzyme preparations were incubated with purified [^14C]fucosylphenyl-β-D-galactoside (7000 cpm, 10 pmol) in fucosyltransferase assay buffer, but in the absence of added GDP-[^14C]fucose or phenyl-β-D-galactoside. These reactions were incubated at 37° C. for various times, and were then fractionated by the Sep-Pak method to determine the amount of remaining [^14C]fucosylphenyl-β-D-galactoside. Fractionated human serum and mouse intestinal mucosa extracts each contained significant α-fucosidase activity. […] Therefore 10 mM L-fucose was included when assaying these enzyme sources. Significant amounts of α-fucosidase activity were not detected in any of the other cell extracts; product hydrolysis never exceeded 1%/h under the standard assay conditions.
# [4] = target: T2, blood group H (α1,2)fucosyltransferase (Homo sapiens, UniProt P19526); experiment: Apparent Km for the blood group H (α1,2)fucosyltransferase; type: biochemical; details: determined by the inventor; read-out: apparent Km for phenyl-β-D-galactoside
# T2 sequence (P19526 1-365): T1 sequence (P19526 1-365)
# Description: Serum was prepared from freshly drawn blood obtained from a non-Secretor individual. The blood was clotted in a glass tube at 37° C. for 1 h and was immediately fractionated by ammonium sulfate precipitation exactly as described. The 20%-40% ammonium sulfate fraction was dialyzed against 2 changes of 4 liters of water (8 h each) at 4° C. Assay of (α1,2)fucosyltransferase was done immediately. Alternatively, the fractionated serum was aliquoted and stored at −20° C. until use.
# Fucosyltransferase assays were performed by a modification of the procedure reported by Chester et al. (Chester et al, Eur. J. Biochem., 69: 583-593, 1976). […] The final pH value of each reaction was determined with a micro pH probe. […] The concentration of GDP-fucose in this stock solution was calculated from the UV absorbance at 254 nm of an aliquot diluted in water. […] The supernatant contained virtually 100% of the radiolabelled product; this was collected, and an aliquot was used for separation and quantitation of the fucosylated product using the hydrophobic interaction chromatography method described below. […] This background acceptor “activity” was always less than 3% of the radioactivity incorporated into the phenyl-β-D-galactoside acceptor. […] Intercepts were calculated by the least squares estimation method.
# [5] = target: T3, (α1,2)fucosyltransferase found in human milk (Se locus) (Homo sapiens, UniProt Q10981); experiment: Apparent Km for the human milk (α1,2)fucosyltransferase; type: biochemical; details: human milk enzyme; read-out: apparent Km for phenyl-β-D-galactoside
# T3 sequence (Q10981 29-343 limits assumed): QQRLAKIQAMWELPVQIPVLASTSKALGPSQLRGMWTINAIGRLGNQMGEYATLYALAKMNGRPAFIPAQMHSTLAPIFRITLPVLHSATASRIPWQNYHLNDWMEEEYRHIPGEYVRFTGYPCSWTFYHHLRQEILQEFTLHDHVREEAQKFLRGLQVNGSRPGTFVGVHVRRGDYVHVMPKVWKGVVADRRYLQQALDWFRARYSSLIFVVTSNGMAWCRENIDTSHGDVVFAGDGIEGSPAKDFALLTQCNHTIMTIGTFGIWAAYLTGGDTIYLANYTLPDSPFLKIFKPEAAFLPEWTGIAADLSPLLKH
# Description: (α1,2)Fucosyltransferase was isolated from human milk by published procedures. Briefly, 300 ml of milk from a Se-positive donor was defatted by centrifugation and was extensively dialyzed against 20 MM sodium cacodylate, pH 6.0. This was applied to a column (2.6×115 cm) of sulfopropyl-Sephadex equilibrated in 20 mM cacodylate, pH 6.0. The column was then washed with 1 liter of 20 mM cacodylate, pH 6.0, and was eluted with a linear gradient made from 1.5 liter each of 20 mM cacodylate, pH 6.0, and 500 mM NaCl in 20 mM cacodylate, pH 6.0. Fractions (13 ml) were collected and assayed for (α1,2)fucosyltransferase activity using phenyl-β-D-galactoside acceptor as described below. […]
# Fucosyltransferase assays were performed by a modification of the procedure reported by Chester et al. (Chester et al, Eur. J. Biochem., 69: 583-593, 1976). […] The final pH value of each reaction was determined with a micro pH probe. […] The concentration of GDP-fucose in this stock solution was calculated from the UV absorbance at 254 nm of an aliquot diluted in water. […] The supernatant contained virtually 100% of the radiolabelled product; this was collected, and an aliquot was used for separation and quantitation of the fucosylated product using the hydrophobic interaction chromatography method described below. […] Intercepts were calculated by the least squares estimation method.
# [6] = tested on: Griffonia simplicifolia isolectin I B4 (GS I-B4); experiment: Hapten inhibition of FITC-GS I-B4 staining of COS-1 cells transfected with pCDM7-αGT; type: binding; details: 50 mM raffinose
# Description: COS-1 cells transfected with plasmid DNAs were harvested 48-72-hr after transfection. These were stained with either fluorescein isothiocyanate-conjugated GS I-B4 at 10 μg per ml in staining media or with fluorescein isothiocyanate-conjugated GS I-B4 that had been previously incubated with 50 mM raffinose. Cells were then subjected to analysis by fluorescence-activated cell sorting as described above.
# F9 teratocarcinoma cells = experiment: (α1-3)GT specific activity in retinoic acid-differentiated F9 cells; type: cell-based, mouse
compound,measurement,setting,value
Nc1ncnc2c1ncn2[C@@H]1O[C@H](COP(=O)(O)OP(=O)(O)OP(=O)(O)O)[C@@H](O)[C@H]1O [ATP],inhibition of nucleotide pyrophosphatase activity,[1],Effective inhibition
C[C@@H]1O[C@H](OP(=O)(O)OP(=O)(O)OC[C@H]2O[C@@H](n3cnc4c(=O)[nH]c(N)nc43)[C@H](O)[C@@H]2O)[C@@H](O)[C@H](O)[C@@H]1O [GDP-fucose],Km,"[2]; COS-1 cells transfected with pH3.4, phenyl-β-D-galactoside 25 mM, read-out: apparent Km for GDP-fucose",17.5 µM
C[C@@H]1O[C@H](OP(=O)(O)OP(=O)(O)OC[C@H]2O[C@@H](n3cnc4c(=O)[nH]c(N)nc43)[C@H](O)[C@@H]2O)[C@@H](O)[C@H](O)[C@@H]1O [GDP-β-L-fucose],"activity as a substrate for (α1,2)fucosyltransferase","(α1,2)fucosyltransferase",inactive
C[C@H](O)[C@@H](O)[C@@H](O)[C@H](O)C=O [L-fucose],inhibition of anti-H antibody binding to mH1-12 cells by hapten,[3],does not inhibit
same,inhibition of α-fucosidase activity,α-fucosidase activity,effectively inhibited
same,"effect on (α1,2)fucosyltransferase activity","(α1,2)fucosyltransferase; 10 mM, reconstruction experiments with cell extracts",does not alter the activity
OC[C@H]1O[C@@H](Oc2ccccc2)[C@H](O)[C@@H](O)[C@H]1O [phenyl-β-D-galactoside],Km,"[2]; COS-1 cells transfected with pCDM7-α(1,2)FT, GDP-[14C]fucose 3 μM, read-out: apparent Km for phenyl-β-D-galactoside",2400 µM
same,Km,[4],3100 µM
same,Km,[5],15100 µM
OC[C@H]1O[C@H](OC[C@H]2O[C@H](O[C@]3(CO)O[C@H](CO)[C@@H](O)[C@@H]3O)[C@H](O)[C@@H](O)[C@@H]2O)[C@H](O)[C@@H](O)[C@H]1O [raffinose],inhibition of GS I-B4 staining by hapten,[6],inhibited
CC1=C(/C=C/C(C)=C/C=C/C(C)=C/C(=O)O)C(C)(C)CCC1 [retinoic acid],specific activity of (α1-3)GT versus untreated F9 cells,F9 teratocarcinoma cells,approximately 4 fold
